From the supplement of paper PMC10307832

How the values were obtained:
Assay in all cases: relative viability (nuclei count vs DMSO), 5 days (fraction); higher = more cells survive
Tanzisertib + Pemetrexed = compound: O[C@H]1CC[C@H](Nc2ncc3nc(Nc4c(F)cc(F)cc4F)n([C@H]4CCOC4)c3n2)CC1 [Tanzisertib] + Nc1nc2[nH]cc(CCc3ccc(C(=O)N[C@@H](CCC(=O)O)C(=O)O)cc3)c2c(=O)[nH]1 [Pemetrexed] (partner 0.2 µM)
Procedure, shortened: (§1)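 Relative viability was taken as the ratio of nuclei in treated wells to nuclei in vehicle wells. Lung cancer cell lines in 1536-well plates received compounds by pin tool one day after seeding, either one drug alone or a fixed anchor-drug dose plus five library-drug doses (not always all listed) in √10 steps. Nuclei were counted on 4× images after 5 days of treatment, and values are medians of duplicate plates.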

Tanzisertib + Dasatinib = compound: O[C@H]1CC[C@H](Nc2ncc3nc(Nc4c(F)cc(F)cc4F)n([C@H]4CCOC4)c3n2)CC1 [Tanzisertib] + Cc1nc(Nc2ncc(C(=O)Nc3c(C)cccc3Cl)s2)cc(N2CCN(CCO)CC2)n1 [Dasatinib] (partner 0.075 µM)
Procedure, shortened: as §1

[1] = compound: C[C@@H](N)c1ccc(C(=O)Nc2ccnc3[nH]ccc23)cc1 + Nc1nc2[nH]cc(CCc3ccc(C(=O)N[C@@H](CCC(=O)O)C(=O)O)cc3)c2c(=O)[nH]1 [Pemetrexed] (partner 0.2 µM)
Procedure, shortened: as §1

[2] = compound: C[C@@H](N)c1ccc(C(=O)Nc2ccnc3[nH]ccc23)cc1 + COc1cc2c(Oc3ccc(NC(=O)C4(C(=O)Nc5ccc(F)cc5)CC4)cc3F)ccnc2cc1OCCCN1CCOCC1 [Foretinib] (partner 0.25 µM)
Procedure, shortened: as §1

Row | Cell Line | relative viability (Tanzisertib + Pemetrexed; first compound 0.08 µM) | relative viability (Tanzisertib + Pemetrexed; first compound 0.253 µM) | relative viability (Tanzisertib + Pemetrexed; first compound 0.8 µM) | relative viability (Tanzisertib + Pemetrexed; first compound 2.53 µM) | relative viability (Tanzisertib + Pemetrexed; first compound 8 µM) | relative viability (Tanzisertib + Dasatinib; first compound 0.08 µM) | relative viability (Tanzisertib + Dasatinib; first compound 0.253 µM) | relative viability (Tanzisertib + Dasatinib; first compound 0.8 µM) | relative viability (Tanzisertib + Dasatinib; first compound 2.53 µM) | relative viability (Tanzisertib + Dasatinib; first compound 8 µM) | relative viability ([1]; first compound 0.04 µM) | relative viability ([1]; first compound 0.1265 µM) | relative viability ([1]; first compound 0.4 µM) | relative viability ([1]; first compound 1.265 µM) | relative viability ([1]; first compound 4 µM) | relative viability ([2]; first compound 0.04 µM) | relative viability ([2]; first compound 0.1265 µM) | relative viability ([2]; first compound 0.4 µM) | relative viability ([2]; first compound 4 µM) | relative viability ([2]; first compound 1.265 µM)
1 | 201T | 0.321 | 0.322 | 0.325 | 0.314 | 0.298 | 0.546 | 0.608 | 0.537 | 0.496 | 0.582 | 0.316 | 0.297 | 0.382 | 0.29 | 0.314 | 1.1 | 1.04 | 1.25 | 1.31 | –
2 | A549 | – | – | – | – | – | – | – | – | – | – | – | – | – | – | – | 1.09 | 0.98 | 1.07 | 0.515 | 0.776
3 | A-427 | 0.958 | 0.99 | 0.998 | 1.04 | 0.916 | 0.778 | 0.684 | 0.65 | 0.646 | 0.808 | 0.827 | 0.985 | 0.815 | 0.671 | 0.726 | 1.13 | 1 | 1.14 | 1.07 | –
4 | ABC-1 | – | – | – | – | – | 0.586 | 0.604 | 0.523 | 0.614 | 0.597 | – | – | – | – | – | 1.25 | 1.12 | 1.34 | 0.993 | –
5 | BEN | 0.755 | 0.923 | 1 | 0.909 | 0.605 | 0.306 | 0.374 | 0.442 | 0.355 | 0.32 | 0.556 | 0.711 | 0.701 | 0.877 | 0.634 | 0.331 | 0.525 | 0.878 | 0.4 | 0.689
6 | CAL-12T | 1.06 | 1.24 | 1.12 | 1.21 | 1.18 | 0.453 | 0.343 | 0.375 | 0.314 | 0.319 | 1.23 | 1.39 | 1.43 | 1.49 | 1.27 | 1.36 | 1.27 | 1.13 | 0.909 | 1.27
7 | COR-L23 | 0.2 | 0.209 | 0.188 | 0.201 | 0.191 | 0.527 | 0.473 | 0.491 | 0.494 | 0.396 | 0.204 | 0.195 | 0.188 | 0.201 | 0.178 | 0.943 | 1.01 | 1.02 | 0.534 | 0.938
8 | COR-L 105 | 1.4 | 1.12 | 1.14 | 1.28 | 0.884 | 0.397 | 0.356 | 0.297 | 0.354 | 0.255 | 1 | 1.12 | 0.94 | 0.98 | 0.619 | 0.755 | 0.939 | 1.03 | 0.761 | 0.865
9 | Calu-6 | – | – | – | – | – | – | – | – | – | – | – | – | – | – | – | 0.981 | 0.973 | 0.878 | 0.742 | 0.807
10 | ChaGo-K-1 | 0.251 | 0.25 | 0.242 | 0.261 | 0.274 | 0.647 | 0.606 | 0.605 | 0.533 | 0.59 | 0.259 | 0.277 | 0.257 | 0.234 | 0.241 | 0.93 | 0.955 | 0.885 | 0.799 | 0.918
11 | EBC-1 | – | – | – | – | – | – | – | – | – | – | – | – | – | – | – | 0.0976 | 0.0967 | 0.0934 | 0.092 | 0.0803
12 | EKVX | 0.467 | 0.341 | 0.41 | 0.34 | 0.337 | 0.467 | 0.565 | 0.55 | 0.503 | 0.411 | 0.365 | 0.383 | 0.566 | 0.354 | 0.379 | 0.84 | 0.674 | 0.888 | 0.727 | 0.208
13 | EMC-BAC-2 | 0.429 | 0.427 | 0.432 | 0.451 | 0.469 | 0.315 | 0.321 | 0.328 | 0.351 | 0.299 | 0.401 | 0.422 | 0.452 | 0.471 | 0.402 | 1.08 | 1.05 | 1.11 | 0.903 | 0.967
14 | EPLC-272H | 0.296 | 0.306 | 0.388 | 0.475 | 0.289 | 0.416 | 0.373 | 0.367 | 0.359 | 0.333 | 0.251 | 0.339 | 0.312 | 0.238 | 0.225 | 0.715 | 0.747 | 0.797 | 0.587 | 0.768
15 | H3255 | 0.555 | 0.528 | 0.525 | 0.526 | 0.441 | 0.426 | 0.499 | 0.306 | 0.345 | 0.344 | 0.556 | 0.554 | 0.552 | 0.555 | 0.501 | 0.855 | 0.939 | 1.14 | 0.892 | 0.731
16 | HARA | 0.282 | 0.275 | 0.282 | 0.24 | 0.245 | 0.279 | 0.246 | 0.254 | 0.278 | 0.265 | 0.191 | 0.209 | 0.257 | 0.249 | 0.236 | – | 0.939 | 0.943 | 0.896 | –
17 | HCC-15 | 0.228 | 0.208 | 0.199 | 0.207 | 0.21 | 0.764 | 0.646 | 0.637 | 0.642 | 0.591 | 0.242 | 0.242 | 0.209 | 0.212 | 0.233 | 1.21 | 1.03 | 0.966 | 0.975 | –
18 | HCC-44 | 0.642 | 0.637 | 0.597 | 0.624 | 0.688 | – | – | – | – | – | 0.594 | 0.603 | 0.636 | 0.707 | 0.627 | – | – | – | – | –
19 | HCC-78 | 0.965 | 0.901 | 0.915 | 0.882 | 0.934 | 0.469 | 0.54 | 0.3 | 0.325 | 0.255 | 0.942 | 0.928 | 0.906 | 0.98 | 0.963 | 0.626 | 0.573 | 0.623 | 0.693 | 0.771
